Reference: patent US20050096456A1, “Compounds comprising pseudo-amino acids” (priority 2002, published 2005)
Where two headings read alike, the source gives them in different places. Residues, ends and D or L forms follow the SMILES beside them. *: point of attachment. Myristoyl = CCCCCCCCCCCCCC(=O)*

Assay: Solubility of the lyophilised peptide
Type: physicochemical
Method: The crude peptide was desalted via gel filtration (Sephadex G10, 0.1% TFA in water) before purification by preparative C18 Vydac) high performance liquid chromatography (HPLC) using 0.1% trifluoroacetic acid and 0.1% trifluoroacetic acid/90% acetonitrile as gradient components. After lyophilisation, the peptide was a white amorphous powder, soluble to at least 10 mg/mL in both dimethylsulfoxide and water. Fast atom bombardment spectrometry gave a main peak at 2101 amu corresponding to the molecular ion of the peptide.

Structure (SMILES): CCCCCCCCCCCCCC(=O)NCC(=O)N[C@@H](CO)C(=O)N[C@@H](CO)C(=O)N[C@@H](CCCCN)C(=O)N[C@@H](CO)C(=O)N1CCC[C@H]1C(=O)N[C@@H](CO)C(=O)N[C@@H](CCCCN)C(=O)N[C@@H](CCCCN)C(=O)N[C@@H](CC(=O)O)C(=O)N[C@@H](CC(=O)O)C(=O)N[C@@H](CCCCN)C(=O)N[C@@H](CCCCN)C(=O)N1CCC[C@H]1C(=O)NCC(=O)N[C@@H](CC(=O)O)C(=O)N[C@@H](CCCCNC(=O)[C@@H](N)CS)C(N)=O [MSWP2278, Myristoyl-Gly-Ser-Ser-Lys-Ser-Pro-Ser-Lys-Lys-Asp-Asp-Lys-Lys-Pro-Gly-Asp-(E-amino-cysteinyl carboxamide)-Lys-NH2] (Myristoyl-GSSKSPSKKDDKKPGDK(Cys)-NH2)
- solubility (in dimethylsulfoxide, read-out: solubility in dimethylsulfoxide): ≥ 10 mg/mL
- solubility (in water, read-out: solubility in water): ≥ 10 mg/mL
